Measurements reported in patent US6613734B2, “Peptides-containing liposomal surfactants” (The Scripps Research Institute, priority 1988, dated 2003).
“And” between values parts separate entries of the source, which are not always exact repeats. Equal values may be shown once. Marks after values point to notes of the source that are not given here.

Legend:
[1] = pulsating bubble technique ("bubble assay" of Enhorning, Enhorning Surfactometer); type: physicochemical; settings: for Pressure Gradient 15″: 15 seconds; for Pressure Gradient 15″ / Pressure Gradient 1′ / Pressure Gradient 5′: peptide 10% by weight of PL, 37° C., negative pressure, mean of 3; for Pressure Gradient 1′: 1 minute; for Pressure Gradient 5′: 5 minutes
Method: Measurements of surface pressure across an air-liquid interface (expressed in negative cm of H2O pressure) at minimal (γmin) bubble radius were determined at various times using the pulsating bubble technique described by Enhorning, J. Appl. Physiol. 43: 198-203 (1977).
Briefly, the Enhorning Surfactometer (Surfactometer International, Toronto, Ontario) measures the pressure gradient (ΔP) across a liquid-air interface of a bubble that pulsates at a rate of 20 cycles/min between a maximal (0.55 mm) and minimal (0.4 mm) radius. The bubble, formed in a 37° C., water-enclosed, 20-μl sample chamber, is monitored through a microscopic optic while the pressure changes are recorded on a strip chart recorder calibrated for 0 and −2 cm H2O.
Each of the surfactants identified in Table 5 was assayed for surfactant activity as evidenced by their ability to reduce surface tension in vitro using the “bubble assay” of Enhorning as described above.
After admixture with solvent, each peptide was admixed with phospholipids (PL), DPPC:PG, 3:1, in chloroform in a glass tube so that the amount of polypeptide added equaled one-tenth (10% by. weight) of the amount of PL added, to form a surfactant according to either method A, B or C.
Each of the surfactants was then assayed for surfactant activity as evidenced by their ability to reduce surface tension in vitro in the bubble assay performed as described above. The pressure gradient (ΔP) is a measure of surfactant activity in the polypeptide-PL third admixture which was determined using an Enhorning Surfactometer as described above. Measurements were obtained at time points of 15 seconds (15″), 1 minute (1′) and 5 minutes (5′) and are expressed as a mean of three independent measurements of the indicated polypeptide-PL admixture.

[2] = observation whether peptide/solvent admixture formed a solution or a suspension; type: physicochemical
Method: Each polypeptide was admixed with the indicated solvent at a concentration of 2.5 mg of polypeptide per ml of solvent. […] Those admixtures forming a suspension were further admixed by water bath sonication for 10 seconds to form a very fine suspension, sufficient for pipetting using glass pipettes.

fetal rabbit lung = test: dynamic compliance, fetal rabbit model; type: in vivo; settings: single animal per line
Method: A subject polypeptide was first admixed with solvent as described in Example 3. […]
Surfactant was instilled in rabbit fetal lung by injection into the trachea from a single syringe of the following three components such that the components exit the syringe in the following order: (1) 0.05 ml air; (2) 0.1 ml of a synthetic surfactant prepared in Example 4A or either 2 mg of PL or 2 mg of native surfactant; and (3) 0.1 ml air.
From one syringe, a 0.1 ml aliquot of synthetic surfactant prepared as described in Example 4A (or 2 mg of NS or of PL), was instilled into the rabbit trachea as described above, followed by injection of 0.05 ml lactated Ringer's Solution and 0.2 ml air from a second syringe.
From one syringe, 0.1 ml of a synthetic surfactant prepared as described in Example 4A (or 2 mg of NS or of PL), 0.15 ml air, 0.1 ml saline, and 0.3 ml air were injected into the trachea as described above. Two subsequent aliquots of 0.3 ml air were given.
The surfactant activity of exemplary polypeptides of this invention was studied using the methods described in detail previously by Revak, et al, Am. Rev. Respir. Dis. 134: […] (1986), with the exceptions noted hereinbelow.
Twenty-seven day gestation fetal rabbits were delivered by hysterotomy and immediately injected with 0.05 ml Norcuron (Organon, Inc., N.J.) to prevent spontaneous breathing. The fetal rabbits were then weighed and a small cannula was inserted into the trachea by tracheotomy surfactant prepared as described above was then instilled into the fetal rabbit lung by one of the above instillation protocols.
Following instillation the rabbit was placed in a specially designed plethysmograph (containing a Celesco transducer) connected to a ventilator (Baby Bird, Baby Bird Corp., Palm Springs, Calif.) and the instilled lung was ventilated at a rate of 30 cycles per minute with a peak inspiratory pressure of 25 cm H2O, a positive end expiratory pressure of 4 cm H2O and an inspiratory time of 0.5 seconds. In some studies, dynamic compliance measurements were made at various times throughout the ventilation procedure. In others, static compliance measurements were made following ventilation.
Using the plethysmograph, dynamic compliance measurements were made at various times throughout a 60 minute ventilation period. […] Compliance was calculated by the formula below. [formula]
The above equation was solved with a multiple linear regression for C and R. The compliance (C) represents the elastic nature of the lungs and the resistance (R) represents the pressure necessary to overcome the resistance to the flow of gas into and out of the lungs.

[3] = 2.5 μg of peptide per μl of solvent, solvent H2O

## p74-81: eight amino acid residue control peptide, residues 74-81 of SEQ ID NO 12 (SP18), does not conform to the teachings of the invention (VLRCSMDD) [reference compound]
[1]; PL (DPPC:PG 3:1) 4 mg/ml
  Pressure Gradient 15″: 2.37 cm of H2O
  Pressure Gradient 1′: 2.32 cm of H2O
  Pressure Gradient 5′: 2.31 cm of H2O
[1]; peptide admixed with phospholipids (DPPC:PG 3:1), bubble assay
  surfactant activity compared with the phospholipids alone: did not form a PS having a greater activity than the phospholipid alone
[2]; [3]
  Admixture Formed: solution
[2]; 2.5 mg of polypeptide per ml of solvent, solvent water
  Admixture Formed: solution

## RLLLLCLLLRLLLLCLLLRLL [RCL-2]
[1]; PL (DPPC:PG 3:1) 10 mg/ml
  Pressure Gradient 15″: 0.00 cm of H2O
  Pressure Gradient 1′: 0.00 cm of H2O
  Pressure Gradient 5′: 0.00 cm of H2O
[2]; 2.5 mg of polypeptide per ml of solvent, solvent 67% chloroform 33% methanol
  Admixture Formed: suspention

## CRALIKRIQAMIPKG [p11-25]
[2]; [3]
  Admixture Formed: solution

## DTLLGRMLPQLVCRLVLRCSMDD [p59-81]
[1]; PL (DPPC:PG 3:1) 4 mg/ml
  Pressure Gradient 15″: 1.08 cm of H2O
  Pressure Gradient 1′: 1.02 cm of H2O
  Pressure Gradient 5′: 0.75 cm of H2O
[2]; 2.5 mg of polypeptide per ml of solvent, solvent 68% chloroform 32% methanol
  Admixture Formed: solution

## RLLLLRLLLLRLLLLRLLLLR [RL4]
[1]; PL (DPPC:PG 3:1) 4 mg/ml
  Pressure Gradient 15″: 0.58 cm of H2O
  Pressure Gradient 1′: 0.65 cm of H2O
  Pressure Gradient 5′: 0.33 cm of H2O
[2]; 2.5 mg of polypeptide per ml of solvent, solvent 32% chloroform 68% methanoi
  Admixture Formed: solution

## RVVPLVAGGICQCLAERYSVILLDTLLGRMLPQLVCRLVLRCSMDD [p36-81]
Fetal rabbit lung; 5% peptide to PL, Protocol 3
  Dynamic Compliance, 30 minutes after surfactant instillation: 255 ml air/cm H2O (g body weight × 10^6) and 245 ml air/cm H2O (g body weight × 10^6)
  Dynamic Compliance, 60 minutes after surfactant instillation: 146* ml air/cm H2O (g body weight × 10^6) and 291 ml air/cm H2O (g body weight × 10^6)
Fetal rabbit lung; 10% peptide to PL, Protocol 2
  Dynamic Compliance, 30 minutes after surfactant instillation: 154 ml air/cm H2O (g body weight × 10^6) and 252 ml air/cm H2O (g body weight × 10^6)
  Dynamic Compliance, 60 minutes after surfactant instillation: 1,162 ml air/cm H2O (g body weight × 10^6) and 623 ml air/cm H2O (g body weight × 10^6)
[1]; PL (DPPC:PG 3:1) 10 mg/ml
  Pressure Gradient 15″: 0.90 cm of H2O
  Pressure Gradient 1′: 0.87 cm of H2O
  Pressure Gradient 5′: 0.79 cm of H2O
[2]; 2.5 mg of polypeptide per ml of solvent, solvent 50% chloroform 0% methanol
  Admixture Formed: suspension

## MIPKGALAVAVAQVC [p21-35]
[2]; 2.5 μg of peptide per μl of solvent, solvent Chloroform
  Admixture Formed: suspension

## LLGRMLPQLVCRLVL [p61-75]
[2]; 2.5 μg of peptide per μl of solvent, solvent methanol
  Admixture Formed: suspension

## RRLLLLLLLRRLLLLLLLRRL [RL7]
[1]; PL (DPPC:PG 3:1) 4 mg/ml
  Pressure Gradient 15″: 1.65 cm of H2O
  Pressure Gradient 1′: 1.25 cm of H2O
  Pressure Gradient 5′: 1.00 cm of H2O
[2]; 2.5 mg of polypeptide per ml of solvent, solvent 49% chloroform 51% methanol
  Admixture Formed: solution

## RLLLLCLLLRLLLLCLLLR [RCL-1]
[1]; PL (DPPC:PG 3:1) 10 mg/ml
  Pressure Gradient 15″: 0.50 cm of H2O
  Pressure Gradient 1′: 0.59 cm of H2O
  Pressure Gradient 5′: 0.06 cm of H2O
[2]; 2.5 mg of polypeptide per ml of solvent, solvent 79% chloroform 21% methanol
  Admixture Formed: suspension

## LPQLVCRLVLRCSMDD [p66-81]
[1]; PL (DPPC:PG 3:1) 4 mg/ml
  Pressure Gradient 15″: 1.22 cm of H2O
  Pressure Gradient 1′: 1.11 cm of H2O
  Pressure Gradient 5′: 0.84 cm of H2O
[2]; 2.5 μg of peptide per μl of solvent, solvent methanol:H2O
  Admixture Formed: suspension
[2]; 2.5 mg of polypeptide per ml of solvent, solvent 40% DMF 60% chloroform
  Admixture Formed: suspension
